Results from publication PMC3023143 (Nature, 2011).

Columns and labels:
β1AR-m23 = assay: Ligand efficacy at β1AR-m23; assay type: cell-based, turkey (Meleagris gallopavo); conditions: β1AR-m23, Supplementary Table 3
human β1AR = conditions: no reference given; cited from earlier work

## CC(CCc1ccc(O)cc1)NCCc1ccc(O)c(O)c1 (centres unmarked) [Dobutamine, dobutamine]
β1AR-m23
  ligand efficacy class: partial agonists
Human β1AR
  ligand efficacy class: partial agonists
